Results published in patent publication US6352958B1, “Cycloimido-substituted benzofused heterocyclic herbicides” (FMC Corporation, priority 1997, dated 2002).

Key:
Format in all cases: in vivo
[1] = test system: soybean (Glycine max var. Winchester); test: Preemergence herbicidal activity, soybean; conditions: Rate of Application 0.3 Kg/Ha, examined after 12-17 days
Protocol: (§1) The benzofused heterocyclic compounds of this invention were tested for pre- and postemergence herbicidal activity using a variety of crops and weeds. The test plants included soybean (Glycine max var. Winchester), field corn (Zea mays var. Pioneer 3732), wheat (Triticum aestivum var. Lew), morningglory (Ipomea lacunosa or Ipomea hederacea), velvetleaf (Abutilon theophrasti), green foxtail (Setaria viridis), Johnsongrass (Sorghum halepense), blackgrass (Aloepecurus myosuroides), common chickweed (Stellaria media), and common cocklebur (Xanthium strumarium L.).
(§2) For preemergence testing, two disposable fiber flats (8 cm×15 cm×25 cm) for each rate of application of each candidate herbicide were filled to an approximate depth of 6.5 cm with steam-sterilized sandy loam soil. The soil was leveled and impressed with a template to provide five evenly spaced furrows 13 cm long and 0.5 cm deep in each flat. Seeds of soybean, wheat, corn, green foxtail, and johnsongrass were planted in the furrows of the first flat, and seeds of velvetleaf, morningglory, common chickweed, cocklebur, and blackgrass were planted in the furrows of the second flat. The five-row template was employed to firmly press the seeds into place. A topping soil of equal portions of sand and sandy loam soil was placed uniformly on top of each flat to a depth of approximately 0.5 cm. Flats for postemergence testing were prepared in the same manner except that they were planted 9-14 days prior to the preemergence flats and were placed in a greenhouse and watered, thus allowing the seeds to germinate and the foliage to develop.
(§3) In both pre- and postemergence tests, a stock solution of the candidate herbicide was prepared by dissolving 0.27 g of the compound in 20 mL of water/acetone (50/50) containing 0.5% v/v sorbitan monolaurate. For an application rate of 3000 g/ha of herbicide a 10 mL portion of the stock solution was diluted with water/acetone (50/50) to 45 mL.
(§4) The preemergence flats were initially subjected to a light water spray. The four flats were placed two by two along a conveyor belt (i.e., the two preemergence followed by the two postemergence flats). The conveyor belt fed under a spray nozzle mounted about ten inches above the post-emergent foliage. The preemergent flats were elevated on the belt so that the soil surface was at the same level below the spray nozzle as the foliage canopy of the postemergent plants. The spray of herbicidal solution was commenced and once stabilized, the flats were passed under the spray at a speed to receive a coverage equivalent of 100 L/ha. At this coverage the application rates are those shown in the above table for the individual herbicidal solutions. The preemergence flats were watered immediately thereafter, placed in the greenhouse and watered regularly at the soil surface. The postemergence flats were immediately placed in the green-house and not watered until 24 hours after treatment with the test solution. Thereafter they were regularly watered at ground level. After 12-17 days the plants were examined and the phytotoxicity data were recorded.
(§5) Phytotoxicity data were taken as percent control. Percent control was determined by a method similar to the 0 to 100 rating system disclosed in “Research Methods in Weed Science,” 2nd ed., B. Truelove, Ed.; Southern Weed Science Society; Auburn University, Auburn, Ala., 1977.

[2] = test system: wheat (Triticum aestivum var. Lew); test: Preemergence herbicidal activity, wheat; conditions: Rate of Application 0.3 Kg/Ha, examined after 12-17 days
Protocol: as §1, §2, §3, §4, §5

[3] = test system: field corn (Zea mays var. Pioneer 3732); test: Preemergence herbicidal activity, corn; conditions: Rate of Application 0.3 Kg/Ha, examined after 12-17 days
Protocol: as §1, §2, §3, §4, §5

[4] = test system: velvetleaf (Abutilon theophrasti); test: Preemergence herbicidal activity, velvetleaf; conditions: Rate of Application 0.3 Kg/Ha, examined after 12-17 days
Protocol: as §1, §2, §3, §4, §5

[5] = test system: morningglory (Ipomea lacunosa or Ipomea hederacea); test: Preemergence herbicidal activity, morningglory; conditions: Rate of Application 0.3 Kg/Ha, examined after 12-17 days
Protocol: as §1, §2, §3, §4, §5

[6] = test system: common chickweed (Stellaria media); test: Preemergence herbicidal activity, chickweed; conditions: Rate of Application 0.3 Kg/Ha, examined after 12-17 days
Protocol: as §1, §2, §3, §4, §5

[7] = test system: common cocklebur (Xanthium strumarium L.); test: Preemergence herbicidal activity, cocklebur; conditions: Rate of Application 0.3 Kg/Ha, examined after 12-17 days
Protocol: as §1, §2, §3, §4, §5

[8] = test system: green foxtail (Setaria viridis); test: Preemergence herbicidal activity, green foxtail; conditions: Rate of Application 0.3 Kg/Ha, examined after 12-17 days
Protocol: as §1, §2, §3, §4, §5

[9] = test system: Johnsongrass (Sorghum halepense); test: Preemergence herbicidal activity, johnsongrass; conditions: Rate of Application 0.3 Kg/Ha, examined after 12-17 days
Protocol: as §1, §2, §3, §4, §5

[10] = test system: soybean (Glycine max var. Winchester); test: Postemergence herbicidal activity, soybean; conditions: rate of application 0.3 Kg/Ha, rated after 12-17 days
Protocol: as §1, §2, §3, §4, §5

[11] = test system: wheat (Triticum aestivum var. Lew); test: Postemergence herbicidal activity, wheat; conditions: rate of application 0.3 Kg/Ha, rated after 12-17 days
Protocol: as §1, §2, §3, §4, §5

[12] = test system: field corn (Zea mays var. Pioneer 3732); test: Postemergence herbicidal activity, corn; conditions: rate of application 0.3 Kg/Ha, rated after 12-17 days
Protocol: as §1, §2, §3, §4, §5

[13] = test system: velvetleaf (Abutilon theophrasti); test: Postemergence herbicidal activity, velvetleaf; conditions: rate of application 0.3 Kg/Ha, rated after 12-17 days
Protocol: as §1, §2, §3, §4, §5

[14] = test system: morningglory (Ipomea lacunosa or Ipomea hederacea); test: Postemergence herbicidal activity, morningglory; conditions: rate of application 0.3 Kg/Ha, rated after 12-17 days
Protocol: as §1, §2, §3, §4, §5

[15] = test system: common chickweed (Stellaria media); test: Postemergence herbicidal activity, chickweed; conditions: rate of application 0.3 Kg/Ha, rated after 12-17 days
Protocol: as §1, §2, §3, §4, §5

[16] = test system: common cocklebur (Xanthium strumarium L.); test: Postemergence herbicidal activity, cocklebur; conditions: rate of application 0.3 Kg/Ha, rated after 12-17 days
Protocol: as §1, §2, §3, §4, §5

[17] = test system: green foxtail (Setaria viridis); test: Postemergence herbicidal activity, green foxtail; conditions: rate of application 0.3 Kg/Ha, rated after 12-17 days
Protocol: as §1, §2, §3, §4, §5

[18] = test system: Johnsongrass (Sorghum halepense); test: Postemergence herbicidal activity, johnsongrass; conditions: rate of application 0.3 Kg/Ha, rated after 12-17 days
Protocol: as §1, §2, §3, §4, §5

[19] = test system: blackgrass (Aloepecurus myosuroides); test: Preemergence herbicidal activity, blackgrass; conditions: Rate of Application 0.3 Kg/Ha, examined after 12-17 days
Protocol: as §1, §2, §3, §4, §5

Row | SMILES | PREEMERGENCE HERBICIDAL ACTIVITY (% CONTROL) SOY [1] [%] | PREEMERGENCE HERBICIDAL ACTIVITY (% CONTROL) WHT [2] [%] | PREEMERGENCE HERBICIDAL ACTIVITY (% CONTROL) CRN [3] [%] | PREEMERGENCE HERBICIDAL ACTIVITY (% CONTROL) ABUTH [4] [%] | PREEMERGENCE HERBICIDAL ACTIVITY (% CONTROL) IPOSS [5] [%] | PREEMERGENCE HERBICIDAL ACTIVITY (% CONTROL) STEME [6] [%] | PREEMERGENCE HERBICIDAL ACTIVITY (% CONTROL) XANPE [7] [%] | PREEMERGENCE HERBICIDAL ACTIVITY (% CONTROL) SETVI [8] [%] | PREEMERGENCE HERBICIDAL ACTIVITY (% CONTROL) SORHA [9] [%] | Postemergence herbicidal activity (% control) SOY [10] [%] | Postemergence herbicidal activity (% control) WHT [11] [%] | Postemergence herbicidal activity (% control) CRN [12] [%] | Postemergence herbicidal activity (% control) ABUTH [13] [%] | Postemergence herbicidal activity (% control) IPOSS [14] [%] | Postemergence herbicidal activity (% control) STEME [15] [%] | Postemergence herbicidal activity (% control) XANPE [16] [%] | Postemergence herbicidal activity (% control) SETVI [17] [%] | Postemergence herbicidal activity (% control) SORHA [18] [%] | PREEMERGENCE HERBICIDAL ACTIVITY (% CONTROL) ALOMY [19] [%]
1 | CC(O)c1cc2c(Cl)cc(F)c(-n3c(=O)cc(C(F)(F)F)n(C)c3=O)c2o1 (stereo not drawn) [Compound 240] | 100 | 95 | 95 | 100 | 100 | 100 | 100 | 100 | 100 | 95 | 95 | 100 | 100 | 100 | 100 | 100 | 100 | 100 | 
2 | Cn1c(C(F)(F)F)cc(=O)n(-c2ccc(Cl)c3cc(C(C)(C)O)oc23)c1=O [Compound 241] | 60 | 70 | 95 | 100 | 100 | 100 | 100 | 100 | 100 | 90 | 60 | 70 | 100 | 100 | 85 | 95 | 100 | 70 | 
3 | CC(O)Cc1cc2c(Cl)cc(F)c(-n3c(=O)cc(C(F)(F)F)n(C)c3=O)c2o1 (stereo not drawn) [Compound 243] | 100 | 80 | 95 | 100 | 100 | 100 | 100 | 100 | 100 | 95 | 70 | 95 | 100 | 100 | 100 | 100 | 100 | 100 | 
4 | Cn1c(C(F)(F)F)cc(=O)n(-c2c(F)cc(Cl)c3cc(C(C)(C)NS(C)(=O)=O)oc23)c1=O [Compound 255] | 100 | 90 | 95 | 100 | 100 | 100 | 100 | 100 | 100 | 100 | 100 | 100 | 100 | 100 | 100 | 100 | 100 | 100 | 
5 | Cn1c(C(F)(F)F)cc(=O)n(-c2ccc(Cl)c3cc(C=O)oc23)c1=O [Compound 265] | 70 | 40 | 80 | 90 | 100 | 20 | 70 | 80 | 60 | 70 | 40 | 60 | 100 | 100 | 30 | 20 | 40 | 20 | 
6 | Cn1c(C(F)(F)F)cc(=O)n(-c2ccc(Cl)c3cc(C(=O)O)oc23)c1=O [Compound 266] | 50 | 30 | 60 | 40 | 70 | 0 | 0 | 30 | 30 | 60 | 40 | 60 | 50 | 60 | 10 | 10 | 40 | 40 | 
7 | Cn1c(C(F)(F)F)cc(=O)n(-c2ccc(Cl)c3cc(C(N)=O)oc23)c1=O [Compound 269] | 60 | 30 | 80 | 100 | 100 | 100 | 100 | 100 | 75 | 90 | 40 | 70 | 100 | 80 | 80 |  | 70 | 60 | 70
